Results on twelve compounds are retold here after ChEMBL document CHEMBL4406823 (Eur J Med Chem, 2019).

Usually IC50 stands for the point on the concentration scale where inhibition reaches its midpoint. In general, inhibition refers to the share of the control response that was lost under treatment. The low end stands for a weak effect, the high end for a strong effect.

In one assay the test system is MCF7. Kind of assay: cells. Particulars: Homo sapiens, MCF7, 72 h.
For another assay, the system named is HT-29. Kind of assay: cells. Particulars: Homo sapiens, HT-29, 72 h.
For a further assay, the system named is HeLa. Kind of assay: cells. Particulars: Homo sapiens, 72 h.
The test system of the next assay is SEM cells. Kind of assay: Antiproliferative activity against human SEM cells assessed as inhibition of cell proliferation incubated for 72 hrs by MTT assay. The class given is functional, cell-based. (Tetrazolium dyes change colour on reduction, which living cells bring about.)
The next assay has as its target Tubulin (Bos taurus, UniProt Q6B856+Q862L2+Q862F3). Description: Inhibition of bovine brain tubulin assembly using GTP as substrate incubated for 20 mins by spectrophotometric method.
Another assay relates to HL-60. Description: Antiproliferative activity against human HL60 cells assessed as inhibition of cell proliferation incubated for 72 hrs by MTT assay. The assay is classed as functional, cell-based. Particulars: HL-60, 72 h.
The target in a further assay is Tubulin (Bos taurus) (UniProt Q6B856+Q862L2+Q862F3). Kind of assay: Displacement of [3H]-colchicine from bovine brain tubulin at 5 uM incubated for 1 hr by relative to control. For orientation: In a radioligand displacement assay an active substance lowers the binding of a labelled ligand.
Another assay relates to MDA-MB-231. Description: Antiproliferative activity against human MDA-MB-231 cells assessed as inhibition of cell proliferation incubated for 72 hrs by MTT assay. Particulars: MDA-MB-231, 72 h. The class given is functional, cell-based.

Description for HT-29: Antiproliferative activity against human HT-29 cells assessed as inhibition of cell proliferation incubated for 72 hrs by MTT assay
Description for HeLa: Antiproliferative activity against human HeLa cells assessed as inhibition of cell proliferation incubated for 72 hrs by MTT assay
Description for MCF7: Antiproliferative activity against human MCF7 cells assessed as inhibition of cell proliferation incubated for 72 hrs by MTT assay

For `COc1ccc(-c2c[nH]nc2-c2cc(OC)c(OC)c(OC)c2)cc1Cl`, the IC50 was 1390 nM with MCF7; 0.2 nM in the assay on HT-29; 1.4 nM in the assay with HeLa; 2.4 nM in the assay with SEM cells; 520 nM at Tubulin; 17 nM in the assay on HL-60. The 50% inhibitory concentration (IC50) with MDA-MB-231 came to 21.5 nM. For the same compound, the inhibition at Tubulin (Bos taurus) worked out at 85%.

On to `COc1ccc(-c2c[nH]nc2-c2cc(OC)c(OC)c(OC)c2)cc1`, for which the IC50 was 16.6 nM with MCF7; 10.5 nM in the assay with HT-29; 6 nM in the assay with HeLa; 1 nM in the assay with SEM cells; 370 nM against Tubulin; 4.4 nM in the assay on HL-60. Also, the IC50 with MDA-MB-231 worked out at 8.6 nM. At Tubulin (Bos taurus), this compound yielded an inhibition of 86%.

`COc1cc(-c2n[nH]cc2-c2cc(C)c(OC)c(C)c2)cc(OC)c1OC`: the IC50 was more than 10000 nM in the assay on MCF7; more than 10000 nM with HT-29; more than 10000 nM in the assay on HeLa; 3340 nM in the assay with SEM cells; more than 10000 nM in the assay with HL-60; more than 10000 nM in the assay with MDA-MB-231.

In the case of `COc1cc(-c2n[nH]cc2-c2ccc(C)cc2)cc(OC)c1OC`, the half-maximal inhibitory concentration (IC50) in the assay with MCF7 was 127 nM; with HT-29 it was 28.2 nM; in the assay on HeLa it was 11.1 nM; with SEM cells, 2.6 nM; on Tubulin it was 370 nM; with HL-60 it was 11.9 nM. Further, the IC50 in the assay on MDA-MB-231 amounted to 10.6 nM. This compound gave an inhibition at Tubulin (Bos taurus) of 88%.

With `COc1cc(-c2n[nH]cc2-c2ccc(OC(F)(F)F)cc2)cc(OC)c1OC`, the IC50 is more than 10000 nM in the assay with MCF7; 2420 nM in the assay on HT-29; 3380 nM in the assay with HeLa; 2470 nM in the assay with SEM cells; 1750 nM in the assay with HL-60; 5740 nM with MDA-MB-231.

As for `COc1ccc(/C=C\c2cc(OC)c(OC)c(OC)c2)cc1O` [COMBRETASTATIN A4], the IC50 is 5.1 nM in the assay with SEM cells and 4.5 nM in the assay on MDA-MB-231.

For `COc1cc(-c2n[nH]cc2-c2ccc(C)c(C)c2)cc(OC)c1OC`, the IC50 with MCF7 was found to be 769 nM; in the assay with HT-29, 68.4 nM; in the assay on HeLa it was 35.9 nM; with SEM cells, 28.5 nM; at Tubulin it was 610 nM; with HL-60, 51.3 nM. Further, the IC50 in the assay on MDA-MB-231 was 2610 nM. The inhibition at Tubulin (Bos taurus) was 85%.

Turning to `CCSc1ccc(-c2c[nH]nc2-c2cc(OC)c(OC)c(OC)c2)cc1`, the IC50 in the assay on MCF7 worked out at 492 nM; in the assay with HT-29, 5.4 nM; in the assay with HeLa, 12.5 nM; in the assay with SEM cells, 13.9 nM; against Tubulin, 480 nM; with HL-60, 29.7 nM. In addition, the IC50 in the assay with MDA-MB-231 was found to be 31.4 nM. The inhibition at Tubulin (Bos taurus) came to 85%.

Turning to `COc1cc(-c2n[nH]cc2-c2ccc(SC)cc2)cc(OC)c1OC`, the 50% inhibitory concentration (IC50) is more than 10000 nM with MCF7; 51.3 nM with HT-29; 28.7 nM with HeLa; 30.1 nM in the assay with SEM cells; 570 nM against Tubulin; 40.9 nM in the assay on HL-60. Besides, in the assay with MDA-MB-231, the IC50 turned out to be 3650 nM. The inhibition at Tubulin (Bos taurus) came to 85%.

In the case of `CCCc1ccc(-c2c[nH]nc2-c2cc(OC)c(OC)c(OC)c2)cc1`, the IC50 in the assay on MCF7 came out at 2790 nM; in the assay on HT-29, 541 nM; in the assay with HeLa, 361 nM; in the assay with SEM cells, 406 nM; in the assay on HL-60, 553 nM; in the assay with MDA-MB-231, 1550 nM.

For the compound `COc1cc(-c2c[nH]nc2-c2cc(OC)c(OC)c(OC)c2)ccc1C`, the IC50 in the assay with MCF7 was more than 10000 nM; in the assay on HT-29, 316 nM; in the assay on HeLa, 287 nM; in the assay with SEM cells, 305 nM; in the assay with HL-60, 160 nM; with MDA-MB-231 it was 5280 nM.

As to `COc1cc(-c2n[nH]cc2-c2ccc(C(F)(F)F)cc2)cc(OC)c1OC`, the IC50 stood at 4380 nM in the assay with MCF7; 67.4 nM in the assay on HT-29; 227 nM in the assay on HeLa; 187 nM in the assay with SEM cells; 179 nM in the assay on HL-60; 523 nM with MDA-MB-231.
